{
  "source": "patent US8268847B2",
  "about": "“Therapeutic compositions comprising a specific endothelin receptor antagonist and a PDE5 inhibitor” (Actelion Pharmaceuticals, Ltd., priority 2006, dated 2012)",
  "key": {"[1]": {"tested_on": "spontaneously hypertensive rats (SHR)", "assay": "Spontaneously hypertensive rat model: blood pressure by telemetry, area between curves (ABC)", "type": "in vivo", "conditions": "oral, 0 to 72 hours", "method": "The compounds were administered at least 2 weeks after telemetry system implantation. The compound of formula (I) and the compound having PDE5-inhibitory properties were prepared in 5% arabic gum and administered by oral gavage. The acute effects of the compound of formula (I), the compound having PDE5-inhibitory properties and their combination on blood pressure were measured by collecting data at 5-minute intervals up to 72 h after oral administration. Hourly means of blood pressure were calculated for each rat. Each rat served as its own control, by using the blood pressure data of the last 24 hours before drug administration. The two curves (blood pressure of the control period and blood pressure of the treatment period) were plotted together and the area between curves (ABC) from 0 to 72 hours was calculated. The higher the ABC, the stronger the effect of the item tested for lowering blood pressure.\nSpontaneously Hypertensive Rat Model\nThe SHR rats were purchased from Harlan (Netherlands)."}, "[2]": {"tested_on": "Dahl salt-sensitive (Dahl-S) rats", "assay": "Dahl salt-sensitive rat model: blood pressure by telemetry, area between curves (ABC)", "type": "in vivo", "conditions": "oral, 0 to 72 hours", "method": "Dahl Salt-Sensitive Rat Model\nDahl salt-sensitive (Dahl-S) were purchased from Harlan (Netherlands). The rats were housed by group during the acclimatization period and single-housed after implantation of the telemetry device. All animals were maintained under identical conditions and had free access to normal pelleted rat chow and water. Dahl salt-sensitive rats develop hypertension only upon exposure to salt intake. They were administered a high-salt (8%) chow diet (Purina series 5500). Five weeks after starting salt administration, a telemetry system was implanted under anaesthesia by inhalation of 2.5% isoflurane (in 70% O2+30% N2O). […]\nThe compounds were administered at least 2 weeks after telemetry system implantation. […] The acute effects of the compound of formula (I), the compound having PDE5-inhibitory properties and their combination on blood pressure were measured by collecting data at 5-minute intervals up to 72 h after oral administration. Hourly means of blood pressure were calculated for each rat. […] The two curves (blood pressure of the control period and blood pressure of the treatment period) were plotted together and the area between curves (ABC) from 0 to 72 hours was calculated. […]"}},
  "note": "“And” between values parts separate entries of the source, which are not always exact repeats. Equal values may be shown once.",
  "data": [
    {"smiles": "CCCNS(=O)(=O)Nc1ncnc(OCCOc2ncc(Br)cn2)c1-c1ccc(Br)cc1", "note": "[compound of formula (I)]", "values": [
      {"measurement": "area between curves (ABC) of blood pressure, control period vs treatment period", "setting": "[1]; 0.3 mg/kg", "result": "44 and 38"},
      {"measurement": "area between curves (ABC) of blood pressure, control period vs treatment period", "setting": "[2]; 0.3 mg/kg, higher ABC = stronger blood pressure lowering", "result": 256}
    ]},
    {"smiles": "CCCc1nn(C)c2c(=O)[nH]c(-c3cc(S(=O)(=O)N4CCN(C)CC4)ccc3OCC)nc12", "note": "[sildenafil]", "values": [
      {"measurement": "area between curves (ABC) of blood pressure, control period vs treatment period", "setting": "[1]; 30 mg/kg", "result": 229}
    ]},
    {"smiles": "CN1CC(=O)N2[C@H](c3ccc4c(c3)OCO4)c3[nH]c4ccccc4c3C[C@@H]2C1=O", "note": "[tadalafil]", "values": [
      {"measurement": "area between curves (ABC) of blood pressure, control period vs treatment period", "setting": "[1]; 10 mg/kg", "result": 286},
      {"measurement": "area between curves (ABC) of blood pressure, control period vs treatment period", "setting": "[2]; 10 mg/kg", "result": 310}
    ]}
  ]
}
